The text below walks through data of PMC12568646, “Enzymatic combinatorial synthesis of E-64 and related cysteine protease inhibitors” (Nature Chemical Biology, 2025).

The target in one test is T1, Cp1D (Aspergillus flavus, UniProt A0A7U2QR00).
T1 construct: gene F9C07_2276917; full-length intron-free ORF in pET28a, 6xHis-tagged, expressed in E. coli BL21(DE3)
T1 sequence (A0A7U2QR00 1-463): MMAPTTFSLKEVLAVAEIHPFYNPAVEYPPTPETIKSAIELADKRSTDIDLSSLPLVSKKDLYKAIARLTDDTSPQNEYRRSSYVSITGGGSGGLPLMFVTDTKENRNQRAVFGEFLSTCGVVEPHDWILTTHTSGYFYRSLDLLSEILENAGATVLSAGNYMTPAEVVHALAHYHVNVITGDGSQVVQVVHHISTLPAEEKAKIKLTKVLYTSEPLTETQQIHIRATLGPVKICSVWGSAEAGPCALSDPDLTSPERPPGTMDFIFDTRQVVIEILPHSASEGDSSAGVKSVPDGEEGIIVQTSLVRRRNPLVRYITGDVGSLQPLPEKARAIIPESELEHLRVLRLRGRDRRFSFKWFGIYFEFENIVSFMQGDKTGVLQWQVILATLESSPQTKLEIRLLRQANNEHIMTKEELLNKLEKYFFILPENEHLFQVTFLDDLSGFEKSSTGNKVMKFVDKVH
The test is described as follows: LC-MS of amide product formation. It counts as biochemical. Particulars: 5 mM agmatine, 10 mM ATP, 10 mM MgCl2, 50 mM sodium phosphate pH 8.0, 30 °C.

The target in a further test is T2, cathepsin B (Homo sapiens, UniProt P07858).
T2 construct: gene CTSB
The test is described as follows: fluorogenic Z-Phe-Arg-AMC assay. It counts as biochemical. The conditions noted are these: 40 μM Z-Phe-Arg-AMC, citrate phosphate pH 5.5, 5 mM DTT, 37 °C; covalent, irreversible.

Another test has as its target T3, papain (Carica papaya, UniProt P00784).
T3 construct: mature native enzyme, twice-crystallized from papaya latex (Sigma)
Briefly: X-ray co-crystal structure. It counts as binding. The conditions noted are these: covalent, active-site Cys25.

In a further test the test system is T4, Cp1B.
T4 construct: full-length intron-free ORF in pET28a (pML8010), 6xHis-tagged, expressed in E. coli BL21(DE3); domains span residues 5-502
Briefly: X-ray crystal structure, […] Å. Further details: species or system Aspergillus flavus. The conditions noted are these: ATP-binding site; crystal set up with ATP, MgCl2 and (±)-t-ES; MES also bound.

T3 sequence (P00784 134-345): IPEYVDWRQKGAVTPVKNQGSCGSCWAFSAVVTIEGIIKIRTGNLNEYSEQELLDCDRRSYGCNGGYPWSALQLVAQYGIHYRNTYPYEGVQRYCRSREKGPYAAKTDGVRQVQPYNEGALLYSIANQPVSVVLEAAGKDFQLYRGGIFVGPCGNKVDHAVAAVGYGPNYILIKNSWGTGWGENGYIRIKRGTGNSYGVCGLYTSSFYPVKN

As to `CC[C@H](C)[C@H](NC(=O)[C@@H]1O[C@H]1C(=O)O)C(=O)O` [(2R,3R)-t-ES-L-Ile], on Cp1D, the “KM (apparent)” value is recorded as “much more efficient compared to that toward (2R,3R)-t-ES-L-Ile”.

`NCCCCCCCCNC(=O)[C@@H](NC(=O)[C@H]1O[C@@H]1C(=O)O)C1CCC1` [(2S,3S)-t-ES-a9-b7]: inhibition on cathepsin B was half-maximal at 14 ± 1.1 nM (IC50). In addition, at papain, the X-ray co-crystal structure result is reported as “(2S,3S)-t-ES-a9-b7 was observed to be bound covalently to the active site cysteine”. On to `Nc1ncnc2c1ncn2[C@@H]1O[C@H](CO)[C@@H](O)[C@H]1O` [adenosine], for which the “X-ray crystal structure, 2.7 Å” value with Cp1B was “crystal structure of Cp1B complexed with adenosine and 2-morpholinoethanesulfonic acid (MES) was determined”.
